Laboratory results from US8101570B2, “Single branch heparin-binding growth factor analogs” (BioSurface Engineering Technologies, Inc., priority 2005, dated 2012).
pKd: −log10 of the molar value. Read-outs that look alike come from different tables or passages of the source. Where a SMILES comes first, the peptide text is derived from it. Bridges are numbered along the chain shown (N, C = ends). Roman numbers before positions name the chains, in order. Where no end group is shown, it is not given here. [ ]: non-standard residue; d: D form. Hx = not defined here; Ahx = NCCCCCC(=O)O

Columns and labels:
human PDGF-R-alpha = molecular target: T1, human PDGF-R-alpha (Homo sapiens, UniProt P16234); test: Surface plasmon resonance (BIAcore) binding to immobilized soluble PDGF receptor alpha; details: SPR, 1:1 fit; for kon: read-out: Ka (association rate constant); for koff: read-out: Kd (dissociation rate constant)
T1 construct: Soluble PDGF receptor, recombinant chimera of human PDGF-R-alpha; purchased R&D Systems
T1 sequence (P16234 24-528 limits assumed): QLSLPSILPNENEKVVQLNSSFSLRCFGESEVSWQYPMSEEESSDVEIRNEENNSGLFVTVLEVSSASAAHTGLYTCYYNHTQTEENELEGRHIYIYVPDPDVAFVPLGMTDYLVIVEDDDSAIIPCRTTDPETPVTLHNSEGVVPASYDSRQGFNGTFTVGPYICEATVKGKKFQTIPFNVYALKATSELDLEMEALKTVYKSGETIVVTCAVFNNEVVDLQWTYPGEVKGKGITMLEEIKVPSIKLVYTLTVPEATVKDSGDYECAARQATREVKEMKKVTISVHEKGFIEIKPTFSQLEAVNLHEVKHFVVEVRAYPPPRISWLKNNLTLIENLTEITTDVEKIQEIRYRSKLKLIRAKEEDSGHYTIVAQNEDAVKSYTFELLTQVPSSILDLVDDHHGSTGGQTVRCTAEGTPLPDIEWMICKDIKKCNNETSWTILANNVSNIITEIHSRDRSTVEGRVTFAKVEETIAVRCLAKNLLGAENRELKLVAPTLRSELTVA
Protocol: (§1) Surface Plasmon Resonance (SPR) Analysis. Real-time biomolecular interactions were analyzed with a BIAcore 2000 system (Biacore Inc., Piscataway, N.J.). Soluble PDGF receptor, recombinant chimera of human PDGF-R-alpha and PSGF-R-beta (R &D Systems, Minneapolis, Minn.), was immobilized on research grade CM5 chips (Biacore Inc., Piscataway, N.J.). Following activation with EDC/NHS, the receptors were immobilized on activated CM5 chips. To obtain kinetic data, different concentrations of analytes in HBS-EP buffer were injected over the sensor chip at a flow rate of 50 μl/min. Peptide binding was measured in resonance units (RU). At the end of each sample injection (120 s) buffer was passed over the sensor surface to monitor the dissociation phase. Reference responses from blank flow cells were subtracted from receptor-containing flow cells for each analyte injection and the kinetic parameters for each interaction were determined by globally fitting the experimental data to a 1:1 interaction with BIAEVALUATION software (Biacore Inc., Piscataway, N.J.). The association rate constant and the dissociation rate constant (ka and kd, respectively), and the equilibrium dissociation constant (KD) are presented in the Table 3 for the receptors and PBA2-1.
as §1, with “4” for “3”

PDGF R Beta = molecular target: T2, PDGF R Beta (Homo sapiens, UniProt P09619); test: Surface plasmon resonance (BIAcore) binding to immobilized soluble PDGF receptor beta; details: for kon / koff: SPR, 1:1 fit; for kon: read-out: Ka (association rate constant); for koff: read-out: Kd (dissociation rate constant)
T2 construct: Soluble PDGF receptor, recombinant chimera of human PDGF-R-alpha and PSGF-R-beta; purchased R&D Systems
T2 sequence (P09619 33-532 limits assumed): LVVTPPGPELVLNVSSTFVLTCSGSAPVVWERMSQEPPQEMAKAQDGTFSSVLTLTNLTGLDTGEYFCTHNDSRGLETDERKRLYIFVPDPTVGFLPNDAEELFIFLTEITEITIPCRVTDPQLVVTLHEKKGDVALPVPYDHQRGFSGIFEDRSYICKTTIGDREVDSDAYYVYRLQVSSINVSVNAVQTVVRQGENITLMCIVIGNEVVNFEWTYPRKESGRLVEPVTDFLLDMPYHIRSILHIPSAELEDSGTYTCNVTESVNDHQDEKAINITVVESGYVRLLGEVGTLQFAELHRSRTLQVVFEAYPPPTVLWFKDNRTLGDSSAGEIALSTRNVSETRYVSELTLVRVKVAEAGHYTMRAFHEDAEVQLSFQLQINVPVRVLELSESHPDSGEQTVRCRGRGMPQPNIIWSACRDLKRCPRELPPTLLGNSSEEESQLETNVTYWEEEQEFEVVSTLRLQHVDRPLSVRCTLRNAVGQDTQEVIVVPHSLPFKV
Protocol: as §1
as §1, with “4” for “3”

Sup-T1 cells = test: Sup-T1 cell proliferation; assay type: cell-based; details: low serum, 3 days, FIG. 2
Protocol: Cell proliferation. Sup-T1 cells were obtained from the American Type Culture Collection (Manassas, Va.) and were grown in culture. To monitor the effect of SD1-1 on cell proliferation, Sup-T1 cells were seeded at 100,000 cells per well of a 96-well plate and allowed to attach. The medium was changed to one containing low serum plus SD1-1 and the cells incubated for 3 days after which time the relative cell number was determined using a commercially available kit Referring now to FIG. 2, data in the graph below is reported as the average±SD. Commercially-available recombinant human SDF-1 (diamond) was used as a reference and positive control for comparison of proliferation stimulated by […].

C2C12 cells [1] = test: C2C12 cell migration, trans-well insert assay; assay type: cell-based; details: 8 μm pore membrane coated with collagen, FIG. 3
Protocol: Cell migration. SD1-1 was evaluated for its ability to induce migration of C2C12 cells using a commercially-available cell migration assay. C2C12 cells were seeded on a trans-well insert containing an 8 μm pore size polycarbonate membrane coated with a thin layer of polymerized collagen. The inserts were placed into wells with medium containing SD1-1. Cells that migrated through the membrane were found on the bottom of the insert membrane. These cells were stained, and the stain extracted and detected on a standard microplate reader (560 nm). Referring now to FIG. 3, the results of cell migration in response to the SD1-1 peptide as compared to SDF-1 peptide or control are illustrated. Data is reported as the average±SD.

M-NSF-60 cells = test: Augmentation of growth of M-NSF-60 cells in the presence of rhGCSF; assay type: cell-based; details: 0.01 ng rhGCSF, FIG. 9
Protocol: This peptide was evaluated for augmentation of growth using M-NSF-60 cells in the presence of 0.01 ng rhGCSF.

C2C12 cells [2] = test: Alkaline phosphatase assay in C2C12 cells in the presence of recombinant BMP-7; assay type: cell-based, mouse; details: serum low medium containing BMP-7, FIG. 8
Protocol: This peptide was evaluated using C2C12 cells and in the presence of recombinant BMP-7 and using alkaline phosphatase production as an endpoint. Alkaline phosphatase assays were performed using mouse the pluripotent cell lines C2C12. Cells were plated in 96-well (1×10^4/well) plates and allowed 24 hours to attach. The medium was then replaced with a serum low medium containing BMP-7 and/or B7A1-6. After several days, cells were rinsed, lysed, and alkaline phosphatase activity measured using p-nitrophenylphosphate as substrate.

`CC[C@H](C)[C@H](NC(=O)[C@H](CCCNC(=N)N)NC(=O)[C@H](CCC(=O)O)NC(=O)[C@H](CC(C)C)NC(=O)[C@H](CCCCN)NC(=O)[C@H](CCCNC(=N)N)NC(=O)[C@H](CCCCN)NC(=O)[C@H](CCCNC(=N)N)NC(=O)CCCCCNC(=O)CCCCCNC(=O)CCCCCNC(=O)[C@H](CCCCNC(=O)[C@H](CCCCN)NC(=O)[C@H](CCCCN)NC(=O)[C@H](CCCNC(=N)N)NC(=O)[C@@H](NC(=O)[C@@H](NC(=O)[C@H](CCC(=O)O)NC(=O)[C@@H](NC(=O)[C@H](CCCCN)NC(=O)[C@H](CCCNC(=N)N)NC(=O)[C@@H](N)C(C)C)[C@@H](C)CC)[C@@H](C)CC)C(C)C)NC(=O)[C@H](CCCCN)NC(=O)[C@H](CCCCN)NC(=O)[C@H](CCCNC(=N)N)NC(=O)[C@@H](NC(=O)[C@@H](NC(=O)[C@H](CCC(=O)O)NC(=O)[C@@H](NC(=O)[C@H](CCCCN)NC(=O)[C@H](CCCNC(=N)N)NC(=O)[C@@H](N)C(C)C)[C@@H](C)CC)[C@@H](C)CC)C(C)C)C(=O)N[C@@H](C)C(=O)N[C@@H](CCCNC(=N)N)C(N)=O` [PBA2-1, VRKIEIVRKKK(VRKIEIVRKK)HxHxHxRKRKLERIAR-amide] (I: H-VRKIEIVRKKK[Ahx][Ahx][Ahx]RKRKLERIAR-NH2 / II: H-VRKIEIVRKK; amide I:11-II:C) showed a kon (human PDGF-R-alpha; Table 3, PDGF R Alpha) of 198000 M⁻¹ s⁻¹, a koff (human PDGF-R-alpha; Table 3, PDGF R Alpha) of 0.00336 s⁻¹ and a kon (human PDGF-R-alpha; Table 4, Alpha) of 414000 M⁻¹ s⁻¹. The koff (human PDGF-R-alpha; Table 4, Alpha) was 0.00965 s⁻¹, the pKd (PDGF R Beta) was 7.69 and the kon (PDGF R Beta; Table 3, PDGF R Beta) was 133000 M⁻¹ s⁻¹. It also gave a koff (PDGF R Beta; Table 3, PDGF R Beta) of 0.00296 s⁻¹, a kon (PDGF R Beta; Table 4, Beta) of 353000 M⁻¹ s⁻¹ and a koff (PDGF R Beta; Table 4, Beta) of 0.00714 s⁻¹.

In the case of “KPVSLSYRAPARFFESHVAK(KPVSLSYRAPARFFESHVA)HxHxHxRKRKLERIAR-amide [SD1-1]”, the “cell proliferation (relative cell number)” value (Sup-T1 cells) was “concentration dependent induction of cell proliferation” and the cell migration (C2C12 cells [1]) was “induced cell migration”.

With “SFLLKALEQVRKIQYK(SFLLKALEQVRKIQY)HxHxHxRKRKLERIAR-amide (chain 1 SFLLKALEQVRKIQYK-{Hx-Hx-Hx-Arg-Lys-Arg-Lys-Leu-Glu-Arg-Ile-Ala-Arg-NH2}; reading uncertain; also: chain 2 C-terminus branched onto side chain of Lys16 of chain 1, bond at chain A 16 to a chain's C-terminus) [GCSF1]” the “augmentation of cellular growth” value (M-NSF-60 cells) was “augmented cellular growth”.

In the case of “AISVLYFDDSSNVILKKK(AISVLYFDDSSNVILKK)HxHxHxRKRKLERIAR-amide (chain 1 AISVLYFDDSSNVILKKK-{Hx-Hx-Hx-Arg-Lys-Arg-Lys-Leu-Glu-Arg-Ile-Ala-Arg-NH2}; reading uncertain; also: chain 2 C-terminus branched onto side chain of Lys18 of chain 1, bond at chain A 18 to a chain's C-terminus) [Example B7A1-6]”, the “effect on BMP-7 activity (alkaline phosphatase activity)” value (C2C12 cells [2]) was “dose-dependant suppression of the activity of BMP-7”.

With “SDF-1: Commercially-available recombinant human SDF-1 used as a reference and positive control [reference compound]” the “cell proliferation (relative cell number)” value (Sup-T1 cells) was “concentration dependent induction of cell proliferation” and the cell migration (C2C12 cells [1]) was “induced cell migration”.
